Source: article PMC3904209 (AMB Express, 2014)

Tests used:
Conditions in all cases: 50 mM KHCO3, 50 mM HEPES, 50 mM Na2SO4, 50 mM MgSO4, pH 6, 1°C
Caa = Caa (Cupriavidus necator, UniProt Q0JYI9)
Can = Can (Cupriavidus necator, UniProt Q0KFA0)
Cag = molecular target: T1, Cag (Cupriavidus necator, UniProt Q0KCD8)
T1 construct: gene H16_A1192

Can2 = Can2 (Cupriavidus necator, UniProt Q0JYX2)
CaaB = molecular target: T2, CaaB (Cupriavidus necator, UniProt Q0JYI9)
T2 construct: gene caa
T2 sequence (Q0JYI9 24-249): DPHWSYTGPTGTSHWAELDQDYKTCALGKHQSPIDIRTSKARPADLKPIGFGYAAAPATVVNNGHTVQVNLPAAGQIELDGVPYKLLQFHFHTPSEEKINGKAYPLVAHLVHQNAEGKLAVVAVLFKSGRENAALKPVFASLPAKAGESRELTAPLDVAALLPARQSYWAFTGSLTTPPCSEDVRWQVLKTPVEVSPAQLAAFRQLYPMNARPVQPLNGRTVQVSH

Sequence of Can2 (Q0JYX2 1-235): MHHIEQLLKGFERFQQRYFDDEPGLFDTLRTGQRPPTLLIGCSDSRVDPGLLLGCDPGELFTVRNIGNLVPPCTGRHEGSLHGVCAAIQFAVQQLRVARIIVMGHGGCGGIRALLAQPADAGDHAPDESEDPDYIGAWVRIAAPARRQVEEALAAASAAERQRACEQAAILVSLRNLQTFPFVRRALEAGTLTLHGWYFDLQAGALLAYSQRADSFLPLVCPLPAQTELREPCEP
T1 sequence (Q0KCD8 1-174): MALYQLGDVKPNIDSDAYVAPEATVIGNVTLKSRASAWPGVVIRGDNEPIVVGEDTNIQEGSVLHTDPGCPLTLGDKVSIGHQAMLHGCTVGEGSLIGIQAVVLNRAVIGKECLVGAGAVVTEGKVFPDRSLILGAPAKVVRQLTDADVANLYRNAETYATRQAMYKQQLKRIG
Sequence of Caa (Q0JYI9 1-249): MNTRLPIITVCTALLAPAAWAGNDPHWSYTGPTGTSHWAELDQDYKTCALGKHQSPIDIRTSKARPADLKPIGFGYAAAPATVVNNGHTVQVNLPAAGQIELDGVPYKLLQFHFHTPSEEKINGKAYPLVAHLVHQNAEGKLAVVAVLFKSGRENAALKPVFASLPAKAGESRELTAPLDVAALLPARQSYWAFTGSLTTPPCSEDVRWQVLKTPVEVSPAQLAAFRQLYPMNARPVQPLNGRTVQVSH
Sequence of Can (Q0KFA0 1-223): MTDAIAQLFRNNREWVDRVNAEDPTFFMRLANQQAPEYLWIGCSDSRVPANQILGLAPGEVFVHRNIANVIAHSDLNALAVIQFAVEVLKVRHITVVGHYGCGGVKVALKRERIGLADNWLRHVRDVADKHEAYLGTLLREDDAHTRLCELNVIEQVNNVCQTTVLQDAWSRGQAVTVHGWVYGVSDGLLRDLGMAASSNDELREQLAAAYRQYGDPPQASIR

## O=C(O)O [bicarbonate]
Caa
  stopped-flow pH-indicator (phenol red, A557nm) assay: All CAs were active towards CO2 and bicarbonate
Can
  stopped-flow pH-indicator (phenol red, A557nm) assay: the specific activities of both Can and Can2 were similar with bicarbonate as a substrate
Cag
  stopped-flow pH-indicator (phenol red, A557nm) assay: Cag presented the highest activity using bicarbonate as a carbon source
Can2
  stopped-flow pH-indicator (phenol red, A557nm) assay: the specific activities of both Can and Can2 were similar with bicarbonate as a substrate
CaaB
  stopped-flow pH-indicator (phenol red, A557nm) assay: (CaaB) exhibited similar activity values when compared to the purified, Strep-tagged Caa enzyme
